In US20170209415A1, “USE OF (+)-1-(3,4-DICHLOROPHENYL)-3-AZABICYCLO[3.1.0]HEXANE TO TREAT ADDICTIVE DISORDERS INCLUDING NICOTINE ADDICTION” (priority 2012, published 2017):

Tests used:
[1] = system: alcohol-preferring (P) rats; experiment: Nicotine sensitization, open field locomotor activity in alcohol-preferring rats; assay type: in vivo, rat; conditions: for locomotor activity when administered alone: oral 2.5-40 mg/kg without nicotine, P rats
Protocol: P and NP (alcohol-nonpreferring) rats were administered nicotine by subcutaneous injection of 0.4 mg/kg nicotine each day for 10 days. The rats were then immediately run for 90 minute locomotor sessions using an open-field activity monitoring cage (27×27×20.3 cm, Med Associates, Inc., St. Albans, Vt.). Activity counts represented by the number of infrared beam interruptions were recorded for each animal.
To evaluate the capacity of oral (+)-1-(3, 4-dichlorophenyl)-3-azabicyclo[3.1.0]hexane to block nicotine-induced sensitization in P rats, cohorts of P rats (n=6-9/group) were sensitized to nicotine as described in Example I. The rats were then divided into sixteen groups and given either vehicle, nicotine alone, 2.5 mg/kg (+)-1-(3, 4-dichlorophenyl)-3-azabicyclo[3.1.0]hexane, 5 mg/kg (+)-1-(3, 4-dichlorophenyl)-3-azabicyclo[3.1.0]hexane, 10 mg/kg (+)-1-(3, 4-dichlorophenyl)-3-azabicyclo[3.1.0]hexane, 25 mg/kg (+)-1-(3, 4-dichlorophenyl)-3-azabicyclo[3.1.0]hexane, or 40 mg/kg (+)-1-(3, 4-dichlorophenyl)-3-azabicyclo[3.1.0]hexane. Thirty minutes after administration of (+)-1-(3, 4-dichlorophenyl)-3-azabicyclo[3.1.0]hexane, half of the rats were given 0.4 mg/kg nicotine or vehicle. The rats were then immediately run for 90 minute locomotor sessions using an open-field activity monitoring cage (27×27×20.3 cm, Med Associates, Inc., St. Albans, Vt.). Activity counts represent the number of infrared beam interruptions were recorded for each animal.

[2] = system: alcohol-preferring (P) rats; experiment: Forced swim test during nicotine withdrawal in alcohol-preferring rats; assay type: in vivo, rat
Protocol: The forced swim test (FST) is an animal model of depression in which nicotine withdrawal causes increased immobility (i.e. despair) in the rodents. The FST accordingly may be used as an animal model to evaluate negative affective states during nicotine withdrawal, which may emulate “depressive-like” behavior in human nicotine addicts.
P rats were administered nicotine by subcutaneous injection of 0.4 mg/kg nicotine each day for 14 days and then deprived of nicotine. Lucki's modified FST (Cryan et al., 2002) was performed using immobility, climbing and swimming every twelve hours following the last dose of nicotine (12 hrs, 24 hrs, 36 hrs, 48 hrs, 60 hrs and 72 hrs) for 72 hours.

[3] = cited from earlier work
[4] = target: T1, α4β2 nicotinic receptors (Homo sapiens, UniProt P17787+P43681); experiment: Radioligand binding to α4β2 nicotinic receptors in SH-SYSY cells ([3H]cytosine)
T1 construct: Cerep, Inc. (Poitiers, France), contract assay; host or cells: SH-SYSY (SH-SY5Y) cells
T1 sequence (P43681 29-627 limits assumed): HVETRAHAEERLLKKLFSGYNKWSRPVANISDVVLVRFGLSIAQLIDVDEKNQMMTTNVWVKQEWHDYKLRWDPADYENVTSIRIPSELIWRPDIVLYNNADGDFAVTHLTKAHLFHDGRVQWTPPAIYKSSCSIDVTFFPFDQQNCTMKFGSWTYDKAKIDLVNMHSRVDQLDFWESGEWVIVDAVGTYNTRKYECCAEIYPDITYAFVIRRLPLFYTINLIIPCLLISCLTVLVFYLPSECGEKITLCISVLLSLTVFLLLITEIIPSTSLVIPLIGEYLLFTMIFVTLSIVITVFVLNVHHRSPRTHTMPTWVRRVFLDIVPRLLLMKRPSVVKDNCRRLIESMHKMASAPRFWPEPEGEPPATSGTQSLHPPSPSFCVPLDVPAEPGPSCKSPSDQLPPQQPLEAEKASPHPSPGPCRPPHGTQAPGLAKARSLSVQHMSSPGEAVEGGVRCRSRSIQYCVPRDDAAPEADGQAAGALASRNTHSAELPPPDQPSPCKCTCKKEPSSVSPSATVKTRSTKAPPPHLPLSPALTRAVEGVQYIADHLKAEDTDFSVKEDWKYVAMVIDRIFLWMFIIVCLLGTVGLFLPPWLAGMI
T1 sequence (P17787 26-502): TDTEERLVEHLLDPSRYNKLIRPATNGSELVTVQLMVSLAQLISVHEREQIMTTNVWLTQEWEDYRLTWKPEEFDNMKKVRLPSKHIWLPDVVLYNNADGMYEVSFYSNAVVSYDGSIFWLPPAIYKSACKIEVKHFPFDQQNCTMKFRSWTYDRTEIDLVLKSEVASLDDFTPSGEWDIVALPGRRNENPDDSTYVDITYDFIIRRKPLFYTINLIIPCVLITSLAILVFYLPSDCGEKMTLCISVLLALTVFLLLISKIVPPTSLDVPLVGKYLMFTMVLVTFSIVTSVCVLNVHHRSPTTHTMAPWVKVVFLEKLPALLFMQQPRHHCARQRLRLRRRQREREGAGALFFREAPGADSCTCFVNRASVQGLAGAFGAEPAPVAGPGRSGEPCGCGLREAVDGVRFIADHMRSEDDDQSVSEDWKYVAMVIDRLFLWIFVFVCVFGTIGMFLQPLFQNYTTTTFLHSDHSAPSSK
Protocol: (§1) To examine the possibility that a (+)-1-(3, 4-dichlorophenyl)-3-azabicyclo[3.1.0]hexane may have effects mediated via direct actions on nicotinic receptors, its affinity was determined for α7 and α4β2 nicotinic receptors in radioligand binding assays. The assessment was conducted by Cerep, Inc. (Poitiers, France). Inhibition of binding to α4β2 nicotinic receptors in SH-SYSY cells was determined using the radioligand [^3H]cytosine at 0.6 nM concentration according to the method of Gopalakrishnan et al. (1996). Incubation was for 120 minutes at 4° C. and non-specific binding was determined with 10 μM nicotine. Inhibition of binding to α7 nicotinic receptors in SH-SYSY cells was determined using [^125I]α-bungarotoxin (0.05 nM) according to the method of Sharples et al. (2000). Incubation was 120 minutes at 37° C. and non-specific binding was determined using α-bungarotoxin (1 μM). Specific binding of the radioligands was determined by scintillation spectrometry technology.

[5] = system: alcohol-preferring (P) rats; experiment: Nicotine withdrawal effects in ICSS paradigm in alcohol-preferring rats; assay type: in vivo, rat
Protocol: (§2) Rats were anesthetized with isoflurane and an electrode was implanted in the medial forebrain bundles as previously described (Eiler et al., 2005; 2007). Behavioral training and testing was conducted in standard operant chambers (Coulbourn Instruments, Allentown, Pa.) equipped with a removable lever enclosed in a sound attenuating cubicle as previously reported (Eiler et al., 2005; 2007). Four dependent variables were collected in the studies: (1) the frequency that corresponds with 50% of responding (EF50), (2) the minimum/lowest frequency capable of maintaining brain stimulation reward (BSR), (3) the maximum frequency producing the highest rate of lever pressing throughout the BSR session and (4) the total number of lever presses produced during a 20 minute session.
After surgical implantation, rats were trained on a continuous reinforcement (FR1) schedule, and then decreased to a frequency of reinforcement after every six correct responses (FR6) until stabilization. After training, the rats were sensitized with nicotine (0.4 mg/kg daily) for 14 days. 12 hours after the last dose of nicotine, animals were run for a 20 min FR-6 ICSS sessions. ICSS sessions were run every 12 hours (12 hrs, 24 hrs, 36 hrs, 48 hrs, 60 hrs and 72 hrs) for 72 hours.
as §2, with “The effect of (+)-1-(3, 4-dichlorophenyl)-3-azabicyclo[3.1.0]hexane on nicotine withdrawal and ICSS was examined in P rats. Rats” for “Rats”
After surgical implantation, rats were trained on a continuous reinforcement (FR1) schedule, and then decreased to a frequency of reinforcement after every six correct responses (FR6) until stabilization. After training, the rats were sensitized with nicotine (0.4 mg/kg daily) for 14 days. Rats were then given either PBS, 20 mg/kg of (+)-1-(3, 4-dichlorophenyl)-3-azabicyclo[3.1.0]hexane or 40 mg/kg of (+)-1-(3, 4-dichlorophenyl)-3-azabicyclo[3.1.0]hexane. After 48 hours, the animals were run for a 20 min FR-6 ICSS session.

[6] = target: T2, α7 nicotinic receptors (Homo sapiens, UniProt P36544); experiment: Radioligand binding to α7 nicotinic receptors in SH-SYSY cells ([125I]α-bungarotoxin)
T2 construct: Cerep, Inc. (Poitiers, France), contract assay; host or cells: SH-SYSY (SH-SY5Y) cells
T2 sequence (P36544 23-502): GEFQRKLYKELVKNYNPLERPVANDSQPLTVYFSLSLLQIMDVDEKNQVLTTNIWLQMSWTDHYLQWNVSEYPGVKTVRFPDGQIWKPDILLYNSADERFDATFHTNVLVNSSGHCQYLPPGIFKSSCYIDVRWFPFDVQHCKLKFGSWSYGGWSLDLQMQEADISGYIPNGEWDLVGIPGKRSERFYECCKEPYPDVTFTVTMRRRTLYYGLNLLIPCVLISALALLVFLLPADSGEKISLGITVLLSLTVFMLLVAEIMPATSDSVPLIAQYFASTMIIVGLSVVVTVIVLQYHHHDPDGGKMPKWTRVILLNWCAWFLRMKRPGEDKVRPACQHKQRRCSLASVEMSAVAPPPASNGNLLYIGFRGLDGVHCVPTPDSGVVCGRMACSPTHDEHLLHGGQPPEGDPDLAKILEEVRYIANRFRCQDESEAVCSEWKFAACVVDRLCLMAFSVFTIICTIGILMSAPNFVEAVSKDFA
Protocol: as §1

[7] = system: alcohol-preferring (P) rats; experiment: Nicotine potentiation of intracranial self-stimulation (ICSS) in alcohol-preferring rats; assay type: in vivo, rat
Protocol: as §2, with “BSR session,” for “BSR session”
After surgical implantation, rats were trained on a continuous reinforcement (FR1) schedule, then decreased to a frequency of reinforcement after every six correct responses (FR6) until stabilization.
Following the initial ICSS experiments, the effects of varied doses of nicotine were examined in the ICSS paradigm. Animals were prepared and trained as described above.
as §2, with “The effect of (+)-1-(3, 4-dichlorophenyl)-3-azabicyclo[3.1.0]hexane on the nicotine facilitation of ICSS was examined in P rats. Rats” for “Rats”
After surgical implantation, rats were trained on a continuous reinforcement (FR1) schedule, then decreased to a frequency of reinforcement after every six correct responses (FR6) until stabilization. After training, the rats were sensitized with nicotine (0.4 mg/kg daily) using the Kelley 10-day sensitization model as described in Example I (rats were treated with either nicotine (0.4 mg/ml/kg) or saline once per day for 10 days in a test environment distinct from their home cages (Schroeder et al., 2001).
After sensitization, three of the nicotine cohorts of P rats (n=8) were given (+)-1-(3, 4-dichlorophenyl)-3-azabicyclo[3.1.0]hexane (10, 20 or 40 μg) into the medial prefrontal cortex (mPC) prior to the daily administration of nicotine (0.4 mg/ml/kg).

[8] = oral 20 and 40 mg/kg, 48 hours nicotine abstinence
[9] = read-out: % Inhibition of binding
[10] = after 0.4 mg/kg sc daily for 14 days
[11] = 12-72 hrs after last dose, 0.4 mg/kg daily for 14 days
[12] = 0.2-0.8 mg/kg SQ, all 3 doses, sensitized P rats

In the case of `Clc1ccc([C@]23CNC[C@H]2C3)cc1Cl` [amitifadine, (1R,5S)-(+)-1-(3,4-dichlorophenyl)-3-azabicyclo[3.1.0]hexane], the “nicotine-induced increases in horizontal activity” value ([1]; oral 2.5, 5, 10, 25, 40 mg/kg, 30 min before 0.4 mg/kg nicotine, sensitized P rats, 90 minute open field session) is reported as “significantly reduced”, the “locomotor activity when administered alone” value ([1]; 90 minute open field session) is reported as “did not significantly alter” and the “locomotor activity when administered alone” value ([1]; 90 minute open field session, listed as (+)-1-(3, 4-dichlorophenyl)-3-azabicyclo[3.1.0]hexane) is reported as “did not alter”. The “nicotine-induced increases in immobility” value ([2]; oral 12.5 or 25 mg/kg administered at 48 hours of nicotine abstinence) was “significantly attenuated”, the tolerability ([3]; U.S. Ser. No. 13/310,694, Graff et al. 2009) was “well tolerated” and the “dopaminergic side effects such as nausea, vomiting, and hypomania” value ([3]; in vivo) was “did not lead to”. The “noradrenergic side effects such as significantly elevated heart rate and increased systolic and diastolic blood pressure” value ([3]; in vivo) was “did not lead to”, the inhibition at 0.1 µM ([4]; concentration 100 nM) was 17% and the inhibition at 1 µM ([4]; concentration 1000 nM) was 14%. For the same compound, the inhibition at 10 µM ([4]; concentration 10000 nM) was 13%, the “effect on binding of radioligand” value ([4]; concentrations from 100 to 10,000 nM) was “no appreciable effect” and the “reduction in responding produced by the 48 hour withdrawal period” value ([5]; oral 20 and 40 mg/kg) was “elevated”. For the same compound, the “nicotine elevation of the reward threshold, EF50” value [5, 8] was “profound reduction”, the “nicotine elevation of the reward threshold, minimum frequency” value [5, 8] was “profound reduction” and the inhibition at 0.1 µM [6, 9] was 13%. For the same compound, the inhibition at 1 µM [6, 9] was 6%, the inhibition at 10 µM [6, 9] was -9% and the “effect on binding of radioligand” value ([6]; α7, concentrations from 100 to 10,000 nM) was “no appreciable effect”. The “nicotine elevation in total responding” value ([7]; 10, 20 or 40 μg into mPC) was “attenuation”, the “nicotine reduction of EF50” value ([7]; 10, 20 or 40 μg into mPC) was “attenuation” and the “nicotine reduction of minimum frequency” value ([7]; 10, 20 or 40 μg into mPC) was “attenuation”. For the same compound, the “nicotine facilitation on ICSS” value ([7]; 10, 20 or 40 μg into medial prefrontal cortex immediately prior to nicotine 0.4 mg/ml/kg, P rats) was “significantly reduced”.

In the case of `CN1CCCC1c1cccnc1` (stereo not shown) [nicotine], the “sensitization to nicotine (open field activity)” value ([1]; 0.4 mg/kg sc daily for 10 days, P versus NP rats) is reported as “occurs in P rats only”, the “climbing during nicotine abstinence” value [2, 10] is reported as “Reduction” and the “swimming during nicotine abstinence” value [2, 10] is reported as “Reduction”. The “immobility during nicotine abstinence” value ([2]; at 48 and 72 hours after 0.4 mg/kg sc daily for 14 days) was “significant elevation”, the EF50 during withdrawal [5, 11] was “time dependent increase” and the “minimum frequency capable of maintaining BSR during withdrawal” value [5, 11] was “time dependent increase”. For the same compound, the “total ICSS responding during withdrawal” value [5, 11] was “marked reduction”, the “sensitivity to the reward potentiating effects of nicotine in ICSS following sensitization” value ([7]; 0.4 mg/kg sc on day 11, P, but not NP, rats) was “enhanced sensitivity” and the “ICSS responding versus saline” value ([7]; 0.2-0.8 mg/kg SQ on day 11, sensitized P rats) was “higher responding than did saline”. The EF50 [7, 12] was “reduction” and the minimum frequency [7, 12] was “reduction”.

For `COC[C@@H]1[C@@H](c2ccc(Cl)c(Cl)c2)C[C@@H]2CC[C@H]1N2` [GSK372475, reference compound], the “noradrenergic side effects such as significantly elevated heart rate and increased systolic and diastolic blood pressure” value ([3]; in vivo) is given as “seen”.
